# Assay results as given in patent publication US20230295162A1 (EÖTVÖS LORÁND TUDOMÁNYEGYETEM, priority 2020, published 2023).
# Where two headings read alike, the source gives them in different places.
# Legend:
# [1] = system: PANC-1 (human pancreatic carcinoma) cells; assay: Impedance-based viability assay (xCELLigence SP), long treatment; format: cell-based; conditions: 72 h, read-out: cytotoxicity expressed in IC50, PANC-1
# Description: (Gibco®/Invitrogen Corporation, New York, NY, USA).
# Data obtained from each experiment represent mathematical averages.
# [2] = system: Capan-1 (pancreas, adenocarcinoma) cells; assay: Cell viability assay, CellTiter-Glo (Example 21); format: cell-based, human; conditions: 72 h treatment
# Method: (§1) Effect of the selected compounds on cancer cell viability was measured via CellTiter-Glo® luminescent cell viability assay (Promega, Madison, WI, USA) according to the manufacturer's instructions. Cells were plated onto a flat-bottomed, white 96 well plate (BRANDplates®, cat. no.: 781965). Density of the seeded cells was optimized based on their size and growth rate, as the follows: Panc-1:750 cells/well; DU 145, PC-3, Capan-1, MIA PaCa-2, SCC-25, FaDu and EBC-1: 1000 cells/well; LNCaP, Detroit 562, MDA-MB-231 and MDA-MB-453 1500 cells/well. […] After the treatment, the luminescence signal was recorded using a microplate reader (BioTek Synergy 2 Multi-Mode Reader, BioTek, Winooski, VT, USA). Dose-response curves were generated by GraphPad Prism 8.4.2. software using a non-linear regression model (variable slope, four parameters), (see FIGS. 12-51).
# [3] = system: DU 145 (prostate, carcinoma) cells; assay: Cell viability assay, CellTiter-Glo (Example 21); format: cell-based, human; conditions: 72 h
# Method: as §1
# [4] = system: Detroit 562 (pharynx, carcinoma) cells; assay: Cell viability assay, CellTiter-Glo (Example 21); format: cell-based, human; conditions: 72 h treatment
# Method: as §1
# [5] = system: EBC-1 (lung, squamous cell carcinoma) cells; assay: Cell viability assay, CellTiter-Glo (Example 21); format: cell-based, human; conditions: 72 h treatment
# Method: as §1
# [6] = system: FaDu (pharynx, squamous cell carcinoma) cells; assay: Cell viability assay, CellTiter-Glo (Example 21); format: cell-based, human; conditions: 72 h treatment
# Method: as §1
# [7] = system: LNCaP (prostate, carcinoma) cells; assay: Cell viability assay, CellTiter-Glo (Example 21); format: cell-based, human; conditions: 72 h
# Method: as §1
# [8] = system: MDA-MB-231 (breast, adenocarcinoma) cells; assay: Cell viability assay, CellTiter-Glo (Example 21); format: cell-based, human; conditions: 72 h treatment
# Method: as §1
# [9] = system: MDA-MB-453 (breast, carcinoma) cells; assay: Cell viability assay, CellTiter-Glo (Example 21); format: cell-based, human; conditions: 72 h treatment
# Method: as §1
# [10] = system: MIA PaCa-2 (pancreas, carcinoma) cells; assay: Cell viability assay, CellTiter-Glo (Example 21); format: cell-based, human; conditions: 72 h treatment
# Method: as §1
# [11] = system: PC-3 (prostate, adenocarcinoma) cells; assay: Cell viability assay, CellTiter-Glo (Example 21); format: cell-based, human; conditions: 72 h treatment
# Method: as §1
# [12] = system: Panc-1 (pancreas, carcinoma) cells; assay: Cell viability assay, CellTiter-Glo (Example 21); format: cell-based, human; conditions: 72 h treatment
# Method: as §1
# [13] = system: SCC-25 (tongue, squamous cell carcinoma) cells; assay: Cell viability assay, CellTiter-Glo (Example 21); format: cell-based, human; conditions: 72 h treatment
# Method: as §1
# Panc-1 human cell line = assay: Cytotoxicity on Panc-1, xCELLigence SP, IC50 after 24 h, 48 h, 72 h and 96 h (Example 22)
smiles,measurement,setting,value
"O=C1C2=C(CCN(Cc3cccc(F)c3)C2)N2CCN=C2N1Cc1ccc(C(F)(F)F)cc1 [I/3, reference compound]",IC50,[1],44 nM
same,"Capan-1 (pancreas, adenocarcinoma) cell viability (% of control)",[2]; 3.7 nM,102.7 ± 6.9 % of control
same,"Capan-1 (pancreas, adenocarcinoma) cell viability (% of control)",[2]; 11.1 nM,101.5 ± 5.5 % of control
same,"Capan-1 (pancreas, adenocarcinoma) cell viability (% of control)",[2]; 100 nM,38.7 ± 2.8 % of control
same,"Capan-1 (pancreas, adenocarcinoma) cell viability (% of control)",[2]; 300 nM,33.0 ± 2.2 % of control
same,DU 145 cell viability,[3]; 3.7 nM,102.0 ± 3.5 % of control
same,DU 145 cell viability,[3]; 11.1 nM,95.9 ± 5.1 % of control
same,DU 145 cell viability,[3]; 100 nM,7.1 ± 1.6 % of control
same,DU 145 cell viability,[3]; 300 nM,7.2 ± 1.2 % of control
same,"Detroit 562 (pharynx, carcinoma) cell viability (% of control)",[4]; 3.7 nM,99.5 ± 8.4 % of control
same,"Detroit 562 (pharynx, carcinoma) cell viability (% of control)",[4]; 11.1 nM,44.3 ± 11.0 % of control
same,"Detroit 562 (pharynx, carcinoma) cell viability (% of control)",[4]; 100 nM,28.9 ± 5.3 % of control
same,"Detroit 562 (pharynx, carcinoma) cell viability (% of control)",[4]; 300 nM,28.7 ± 4.1 % of control
same,"EBC-1 (lung, squamous cell carcinoma) cell viability (% of control)",[5]; 3.7 nM,97.8 ± 4.0 % of control
same,"EBC-1 (lung, squamous cell carcinoma) cell viability (% of control)",[5]; 11.1 nM,96.3 ± 1.4 % of control
same,"EBC-1 (lung, squamous cell carcinoma) cell viability (% of control)",[5]; 100 nM,25.1 ± 0.2 % of control
same,"EBC-1 (lung, squamous cell carcinoma) cell viability (% of control)",[5]; 300 nM,22.2 ± 0.1 % of control
same,"FaDu (pharynx, squamous cell carcinoma) cell viability (% of control)",[6]; 3.7 nM,101.6 ± 3.4 % of control
same,"FaDu (pharynx, squamous cell carcinoma) cell viability (% of control)",[6]; 11.1 nM,100.9 ± 5.9 % of control
same,"FaDu (pharynx, squamous cell carcinoma) cell viability (% of control)",[6]; 100 nM,26.2 ± 7.9 % of control
same,"FaDu (pharynx, squamous cell carcinoma) cell viability (% of control)",[6]; 300 nM,22.4 ± 5.9 % of control
same,LNCaP cell viability,[7]; 3.7 nM,98.7 ± 7.4 % of control
same,LNCaP cell viability,[7]; 11.1 nM,95.0 ± 7.4 % of control
same,LNCaP cell viability,[7]; 100 nM,13.8 ± 1.7 % of control
same,LNCaP cell viability,[7]; 300 nM,12.7 ± 1.2 % of control
same,"MDA-MB-231 (breast, adenocarcinoma) cell viability (% of control)",[8]; 3.7 nM,101.4 ± 1.4 % of control
same,"MDA-MB-231 (breast, adenocarcinoma) cell viability (% of control)",[8]; 11.1 nM,99.8 ± 1.8 % of control
same,"MDA-MB-231 (breast, adenocarcinoma) cell viability (% of control)",[8]; 100 nM,56.5 ± 3.4 % of control
same,"MDA-MB-231 (breast, adenocarcinoma) cell viability (% of control)",[8]; 300 nM,53.7 ± 3.1 % of control
same,"MDA-MB-453 (breast, carcinoma) cell viability (% of control)",[9]; 3.7 nM,110.3 ± 7.7 % of control
same,"MDA-MB-453 (breast, carcinoma) cell viability (% of control)",[9]; 11.1 nM,97.0 ± 13.3 % of control
same,"MDA-MB-453 (breast, carcinoma) cell viability (% of control)",[9]; 100 nM,33.2 ± 2.0 % of control
same,"MDA-MB-453 (breast, carcinoma) cell viability (% of control)",[9]; 300 nM,29.8 ± 1.5 % of control
same,"MIA PaCa-2 (pancreas, carcinoma) cell viability (% of control)",[10]; 3.7 nM,107.1 ± 16.4 % of control
same,"MIA PaCa-2 (pancreas, carcinoma) cell viability (% of control)",[10]; 11.1 nM,105.2 ± 3.4 % of control
same,"MIA PaCa-2 (pancreas, carcinoma) cell viability (% of control)",[10]; 100 nM,17.5 ± 7.9 % of control
same,"MIA PaCa-2 (pancreas, carcinoma) cell viability (% of control)",[10]; 300 nM,17.2 ± 7.5 % of control
same,"PC-3 (prostate, adenocarcinoma) cell viability (% of control)",[11]; 3.7 nM,100.8 ± 4.0 % of control
same,"PC-3 (prostate, adenocarcinoma) cell viability (% of control)",[11]; 11.1 nM,110.2 ± 4.1 % of control
same,"PC-3 (prostate, adenocarcinoma) cell viability (% of control)",[11]; 100 nM,34.7 ± 1.0 % of control
same,"PC-3 (prostate, adenocarcinoma) cell viability (% of control)",[11]; 300 nM,32.3 ± 2.6 % of control
same,"Panc-1 (pancreas, carcinoma) cell viability (% of control)",[12]; 3.7 nM,105.8 ± 4.0 % of control
same,"Panc-1 (pancreas, carcinoma) cell viability (% of control)",[12]; 11.1 nM,105.7 ± 4.2 % of control
same,"Panc-1 (pancreas, carcinoma) cell viability (% of control)",[12]; 100 nM,59.9 ± 17.3 % of control
same,"Panc-1 (pancreas, carcinoma) cell viability (% of control)",[12]; 300 nM,53.9 ± 6.5 % of control
same,"SCC-25 (tongue, squamous cell carcinoma) cell viability (% of control)",[13]; 3.7 nM,101.0 ± 4.9 % of control
same,"SCC-25 (tongue, squamous cell carcinoma) cell viability (% of control)",[13]; 11.1 nM,95.1 ± 5.1 % of control
same,"SCC-25 (tongue, squamous cell carcinoma) cell viability (% of control)",[13]; 100 nM,34.9 ± 3.9 % of control
same,"SCC-25 (tongue, squamous cell carcinoma) cell viability (% of control)",[13]; 300 nM,33.1 ± 1.7 % of control
same,IC50,"Panc-1 human cell line; PANC-1, 72 h, read-out: IC50 (72 h) [nM]",45.3 ± 3.34 nM
same,IC50,"Panc-1 human cell line; PANC-1, 96 h, read-out: IC50 (96 h) [nM]",22.6 ± 0.856 nM
